Eight molecules from publication PMC7114147 (Antiviral Research, 2013) can be followed below.

The test system of data set [1] is A/H1N1 (A/PR/8/34). Nature of the data set: microbe, parasite or virus in culture. Type of data set: cell-based, influenza A virus. The conditions noted are these: read-out: Antiviral EC50 A/H1N1 (A/PR/8/34).
Data set [2] deals with A/H3N2 (A/HK/7/87). Nature of the data set: microbe, parasite or virus in culture. Type of data set: cell-based.
The subject of data set [3] is A/Victoria/3/75 (A/H3N2). Nature of the data set: microbe, parasite or virus in culture. Type of data set: cell-based. The conditions noted are these: Influenza A virus, H3N2, read-out: EC50 A/Victoria/3/75.
A short description of data set [4]: in vitro. To be noted: dog, Cytotoxicity CC50.
For data set [5], the system named is endosomal pH. The format is cell-based.
The target in data set [6] is A/M2 wt channel (Influenza A virus, UniProt P0DOF5). Nature of the data set: biochemical. To be noted: pH 5.5, read-out: Activity against A/M2 wt channel, Inhibition at 100 μM (%).
Data set [7] relates to A/Ned/378/05 (A/H1N1). Briefly: microbe, parasite or virus in culture. To be noted: Influenza A virus, H1N1, MDCK, read-out: Antiviral activity (EC50) A/Ned/378/05. Type of data set: cell-based.
Data set [8] has as its system A/FM/1/47 (A/H1N1). Briefly: microbe, parasite or virus in culture. The format is cell-based. The conditions noted are these: Influenza A virus, H1N1, MDCK, read-out: Antiviral activity (EC50) A/FM/1/47.
For data set [9], the system named is A/Ishikawa/7/82 (A/H3N2). Nature of the data set: microbe, parasite or virus in culture. The format is cell-based. To be noted: Influenza A virus, read-out: Antiviral activity (EC50) A/Ishikawa/7/82.
Data set [10] concerns influenza virus A/PR/8/34. Type of data set: cell-based.
Data set [11] relates to MDCK cells. The conditions noted are these: dog.
The mark [12] stands for this setting: Influenza A virus, H1N1|PR/8, MDCK.
[13] abbreviates: Influenza A virus, H3N2, MDCK, read-out: Antiviral EC50 A/H3N2 (A/HK/7/87).
[14] abbreviates: Influenza A virus, H3N2, MDCK, read-out: Antiviral activity (EC50) A/HK/7/87.

Where “and” joins values, the source holds several entries; their conditions need not be identical. Identical values can stand only once. Like-named read-outs stand apart in the source and are kept apart here.

Chain of A/M2 wt channel (P0DOF5 whole entry, looked up): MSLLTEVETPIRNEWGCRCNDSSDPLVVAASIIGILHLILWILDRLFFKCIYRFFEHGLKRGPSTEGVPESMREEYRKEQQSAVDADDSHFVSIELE

Turning to `C1=CC2C3C4C5C=CC4C24CNCC54C13` [Compound 3, 3-azahexacyclo[7.6.0.0^1,5.0^5,12.0^6,10.0^11,15]pentadeca-7,13-diene], the EC50 is 14 µM in [1] (setting [12]); 16 µM in [1]; 16 µM in data set [2] (setting [13]); 14 µM in [2] (read-out: Antiviral EC50 A/H3N2 (A/HK/7/87)); > 100 µM in data set [3]. Moreover, the CC50 in data set [4] was > 100 µM.

Consider `CCN(CC)CCCC(C)Nc1ccnc2cc(Cl)ccc12` (centres unmarked) [chloroquine], for which the “Effect on acridine orange lysosomal red fluorescence” value in data set [5] is “a decrease in lysosomal pH and a shift to yellow fluorescence”.

Take `CC(N)C12CC3CC(CC(C3)C1)C2` (centres unmarked) [Rimantadine, rimantadine]: the inhibition at 100 µM in [6] worked out at 91.4 ± 0.8%. The EC50 turned out to be 4.6 µM in [1] (setting [12]); 0.17 µM in data set [2] (setting [13]); 0.17 ± 0.08 µM in [2] (setting [14]); 0.5 ± 0.22 µM in data set [7]; 1.9 ± 1.1 µM in [8]; 0.45 ± 0.15 µM in [9]. Further, the “EC99 (2-log10 reduction in virus yield)” value in data set [10] was 48 μM and 48 ± 5 μM. The “Cytotoxicity (MCC)” value in [11] was >100 µM. In addition, the “Cytotoxicity MCC (minimum cytotoxic concentration)” value in data set [11] stood at 500 µM. In data set [4], this molecule had a CC50 of 230 µM.

Take `CO/C1=C\C(C)=C\[C@@H](C)[C@@H](O)[C@@H](C)C/C(C)=C/C=C/[C@H](OC)[C@@H]([C@@H](C)[C@@H](O)[C@H](C)[C@@]2(O)C[C@@H](O)[C@H](C)[C@@H](C(C)C)O2)OC1=O` [bafilomycin A1]: in data set [5], the “Effect on acridine orange lysosomal red fluorescence” value is recorded as “completely inhibited”.

Take `CCC(CC)O[C@@H]1C=C(C(=O)O)C[C@H](N)[C@H]1NC(C)=O` [Oseltamivir carboxylate]: the EC50 in data set [2] (setting [14]) was 29 ± 5 µM; in data set [7], 1.5 ± 0.8 µM; in data set [8], 16 ± 2 µM; in data set [9], 3 ± 1 µM. Moreover, the “Cytotoxicity (MCC)” value in [11] is >100 µM.

Take `NC12CC3CC(CC(C3)C1)C2` [Amantadine, amantadine]: the EC50 in data set [1] (setting [12]) turned out to be 53 µM; in data set [2] (setting [13]) it was 3.4 µM; in [2] (setting [14]) it was 3.4 ± 1.7 µM; in data set [7], 2 µM; in data set [8], 5.1 ± 2.4 µM; in data set [9], 11 ± 8 µM. Further, in [10], the “EC99 (2-log10 reduction in virus yield)” value is 179 μM and 179 ± 53 μM. For the same molecule, the “Effect on acridine orange staining pattern” value in data set [5] (500 μM) is “neither of the polycyclic amines tested”. Also, in data set [11], the “Cytotoxicity (MCC)” value came out at 500 µM.

On to `CC(=O)N[C@H]1[C@H]([C@H](O)[C@H](O)CO)OC(C(=O)O)=C[C@@H]1N=C(N)N` [Zanamivir], for which the EC50 in data set [2] (setting [14]) came to 1.2 ± 0.9 µM; in data set [7], 1.7 ± 0.5 µM; in data set [8], 5 ± 1.6 µM; in data set [9] it was 8.7 ± 3.8 µM. Further, the “Cytotoxicity (MCC)” value in [11] was >100 µM.

On to `NC(=O)c1ncn([C@@H]2O[C@H](CO)[C@@H](O)[C@H]2O)n1` [Ribavirin], for which the EC50 in data set [2] (setting [14]) was 8.6 ± 0.4 µM; in [7], 7.6 ± 1 µM; in data set [8], 10 ± 1 µM; in data set [9] it was 8.8 ± 0.3 µM. In addition, the “EC99 (2-log10 reduction in virus yield)” value in data set [10] came out at 11 ± 1 μM. For the same molecule, the “Cytotoxicity (MCC)” value in [11] was >100 µM.

One may read the CC50 as the concentration that lowers cell viability or growth by half.
